Test system: Cell Necrosis
Assay: Cell necrosis assay / cell viability assay (necrosis inhibitor activity)
Format: cell-based
Conditions: necrosis inhibitor activity; compounds outside 14-191; read-out: EC50

Row | SMILES | EC50 [µM]
1 | N#Cc1ccc(C=C2CN(C(=O)N3N=CC[C@H]3c3cncc(F)c3)C2)c(F)n1 [Compound 324, (S)-6-fluoro-5-((1-(5-(5-fluoropyridin-3-yl)-4,5-dihydro-1H-pyrazole-1-carbonyl)azetidin-3-ylidene)methyl)picolinonitrile] | 0.001 to 1
2 | O=C(Nc1nc(N2CCN(C(=O)N3N=CC[C@H]3c3cc(F)cc(F)c3)CC2)ncc1F)C1CCCC1 [Compound 325, (S)—N-(2-(4-(5-(3,5-difluorophenyl)-4,5-dihydro-1H-pyrazole-1-carbonyl)piperazin-1-yl)-5-fluoropyrimidin-4-yl)cyclopentanecarboxamide] | 0.001 to 1
3 | O=C(N1CC(=Cc2cc(NC3CC3)ncc2F)C1)N1N=CC[C@H]1c1cc(F)cc(F)c1 [Compound 326, (S)-(3-((2-(cyclopropylamino)-5-fluoropyridin-4-yl)methylene)azetidin-1-yl)(5-(3,5-difluorophenyl)-4,5-dihydro-1H-pyrazol-1-yl)methanone] | 0.001 to 1
4 | O=C(N1CC(=Cc2cnc3c(F)n[nH]c3c2)C1)N1N=CC[C@H]1c1cc(F)cc(F)c1 [Compound 327] | 0.001 to 1
5 | O=C(Nc1nc(N2CCN(C(=O)N3N=CC[C@H]3c3cc(F)cc(F)c3)CC2)ncc1F)C1CCC1 [Compound 328, (S)—N-(2-(4-(5-(3,5-difluorophenyl)-4,5-dihydro-1H-pyrazole-1-carbonyl)piperazin-1-yl)-5-fluoropyrimidin-4-yl)cyclobutanecarboxamide] | 0.001 to 1
6 | O=C(N1CC(=Cc2cc(F)ncc2F)C1)N1N=CC[C@H]1c1cc(F)cc(F)c1 [Compound 329] | 0.001 to 1
7 | N#Cc1cc(Cl)nc(O[C@H]2CCN(C(=O)N3N=CC[C@H]3c3cc(F)cc(F)c3)C2)c1 [Compound 330, 2-chloro-6-(((S)-1-((S)-5-(3,5-difluorophenyl)-4,5-dihydro-1H-pyrazole-1-carbonyl)pyrrolidin-3-yl)oxy)isonicotinonitrile] | 0.001 to 1
8 | NC(=O)c1cc(Cl)nc(O[C@H]2CCN(C(=O)N3N=CC[C@H]3c3cc(F)cc(F)c3)C2)c1 [Compound 331, 2-chloro-6-(((S)-1-((S)-5-(3,5-difluorophenyl)-4,5-dihydro-1H-pyrazole-1-carbonyl)pyrrolidin-3-yl)oxy)isonicotinamide] | 0.001 to 1
9 | NC(=O)c1ccnc(O[C@@H]2CCN(C(=O)N3N=CC[C@H]3c3cc(F)cc(F)c3)C2)n1 [Compound 332, 2-(((R)-1-((S)-5-(3,5-difluorophenyl)-4,5-dihydro-1H-pyrazole-1-carbonyl)pyrrolidin-3-yl)oxy)pyrimidine-4-carboxamide] | 0.001 to 1
10 | N#Cc1cncc(O[C@@H]2CCN(C(=O)N3N=CC[C@H]3c3cc(F)cc(F)c3)C2)n1 [Compound 335, 6-(((R)-1-((S)-5-(3,5-difluorophenyl)-4,5-dihydro-1H-pyrazole-1-carbonyl)pyrrolidin-3-yl)oxy)pyrazine-2-carbonitrile] | 0.001 to 1
11 | N#Cc1ccnc(O[C@@H]2CCN(C(=O)N3N=CC[C@H]3c3cc(F)cc(F)c3)C2)c1 [Compound 336, 2-(((R)-1-((S)-5-(3,5-difluorophenyl)-4,5-dihydro-1H-pyrazole-1-carbonyl)pyrrolidin-3-yl)oxy)isonicotinonitrile] | 0.001 to 1
12 | N#Cc1cccc(O[C@@H]2CCN(C(=O)N3N=CC[C@H]3c3cc(F)cc(F)c3)C2)n1 [Compound 337, 6-(((R)-1-((S)-5-(3,5-difluorophenyl)-4,5-dihydro-1H-pyrazole-1-carbonyl)pyrrolidin-3-yl)oxy)picolinonitrile] | 0.001 to 1
13 | O=C(N1CC(Oc2ccc(Cl)nc2F)C1)N1N=CC[C@H]1c1cc(F)cc(F)c1 [Compound 338, (S)-(3-((6-chloro-2-fluoropyridin-3-yl)oxy)azetidin-1-yl)(5-(3,5-difluorophenyl)-4,5-dihydro-1H-pyrazol-1-yl)methanone] | 0.001 to 1
14 | N#Cc1nc(O[C@@H]2CCN(C(=O)N3N=CC[C@H]3c3cc(F)cc(F)c3)C2)ccc1Cl [Compound 339, 3-chloro-6-(((R)-1-((S)-5-(3,5-difluorophenyl)-4,5-dihydro-1H-pyrazole-1-carbonyl)pyrrolidin-3-yl)oxy)picolinonitrile] | 0.001 to 1
15 | N#Cc1cc(O[C@@H]2CCN(C(=O)N3N=CC[C@H]3c3cc(F)cc(F)c3)C2)ccn1 [Compound 340, 4-(((R)-1-((S)-5-(3,5-difluorophenyl)-4,5-dihydro-1H-pyrazole-1-carbonyl)pyrrolidin-3-yl)oxy)picolinonitrile] | 0.001 to 1
16 | N#Cc1ccc(F)c(O[C@@H]2CCN(C(=O)N3N=CC[C@H]3c3cc(F)cc(F)c3)C2)c1 [Compound 341, 3-(((R)-1-((S)-5-(3,5-difluorophenyl)-4,5-dihydro-1H-pyrazole-1-carbonyl)pyrrolidin-3-yl)oxy)-4-fluorobenzonitrile] | 0.001 to 1
17 | N#Cc1cc(O[C@@H]2CCN(C(=O)N3N=CC[C@H]3c3cc(F)cc(F)c3)C2)ccc1F [Compound 342, 5-(((R)-1-((S)-5-(3,5-difluorophenyl)-4,5-dihydro-1H-pyrazole-1-carbonyl)pyrrolidin-3-yl)oxy)-2-fluorobenzonitrile] | 0.001 to 1

Row | SMILES | EC50 [µM]
18 | N#Cc1ccc(O[C@@H]2CCN(C(=O)N3N=CC[C@H]3c3cc(F)cc(F)c3)C2)cc1 [Compound 343, 4-(((R)-1-((S)-5-(3,5-difluorophenyl)-4,5-dihydro-1H-pyrazole-1-carbonyl)pyrrolidin-3-yl)oxy)benzonitrile] | 0.001 to 1
19 | N#Cc1nccc(N[C@@H]2CCN(C(=O)N3N=CC[C@H]3c3cc(F)cc(F)c3)C2)n1 [Compound 348] | 0.001 to 1
20 | CC1Oc2ccc(OC3CN(C(=O)N4N=CC[C@H]4c4cc(F)cc(F)c4)C3)cc2NC1=O (stereo partly drawn) [Compound 349, 6-((1-((S)-5-(3,5-difluorophenyl)-4,5-dihydro-1H-pyrazole-1-carbonyl)azetidin-3-yl)oxy)-2-methyl-2H-benzo[b][1,4]oxazin-3(4H)-one] | 0.001 to 1
21 | CC1Oc2cc(F)c(OC3CN(C(=O)N4N=CC[C@H]4c4cc(F)cc(F)c4)C3)cc2NC1=O (stereo partly drawn) [Compound 350, 6-((1-((S)-5-(3,5-difluorophenyl)-4,5-dihydro-1H-pyrazole-1-carbonyl)azetidin-3-yl)oxy)-7-fluoro-2-methyl-2H-benzo[b][1,4]oxazin-3(4H)-one] | 0.001 to 1
22 | CC1Oc2cc(F)c(OC3CN(C(=O)N4N=CC[C@H]4c4cc(F)cc(C#N)c4)C3)cc2NC1=O (stereo partly drawn) [Compound 351, 3-fluoro-5-((5S)-1(3-((7-fluoro-2-methyl-3-oxo-3,4-dihydro-2H-benzo[b][1,4]oxazin-6-yl)oxy)azetidine-1-carbonyl)-4,5-dihydro-1H-pyrazol-5. yl)benzonitrile] | 0.001 to 1
23 | CC1Oc2cc(F)c(OC3CN(C(=O)N4N=CC[C@H]4c4ccccc4)C3)cc2NC1=O (stereo partly drawn) [Compound 352, 7-fluoro-2-methyl-6-((1-((S)-5-phenyl-4,5-dihydro-1H-pyrazole-1-carbonyl)azetidin-3-yl)oxy)-2H-benzo[b][1,4]oxazin-3(4H)-one] | 0.001 to 1
24 | CC1Oc2ccc(OC3CN(C(=O)N4N=CC[C@H]4c4cc(F)cc(F)c4)C3)cc2NC1=O (stereo partly drawn) [Compound 353, 6-((1-((S)-5-(3,5-difluorophenyl)-4,5-dihydro-1H-pyrazole-1-carbonyl)azetidin-3-yl)oxy)-2-methyl-2H-benzo[b][1,4]oxazin-3(4H)-one] | 0.001 to 1
25 | CC1Oc2ccc(OC3CN(C(=O)N4N=CC[C@H]4c4cc(F)cc(C#N)c4)C3)cc2NC1=O (stereo partly drawn) [Compound 354, 3-fluoro-5-((5S)-1-(3-((2-methyl-3-oxo-3,4-dihydro-2H-benzo[b][1,4]oxazin-6-yl)oxy)azetidine-1-carbonyl)-4,5-dihydro-1H-pyrazol-5-yl)benzonitrile] | 0.001 to 1
26 | CC1Oc2ccc(OC3CN(C(=O)N4N=CC[C@H]4c4ccccc4)C3)cc2NC1=O (stereo partly drawn) [Compound 355, 2-methyl-6-((1-((S)-5-phenyl-4,5-dihydro-1H-pyrazole-1-carbonyl)azetidin-3-yl)oxy)-2H-benzo[b][1,4]oxazin-3(4H)-one] | 0.001 to 1
27 | COc1cccc(O[C@@H]2CCN(C(=O)N3N=CC[C@H]3c3cc(F)cc(F)c3)C2)n1 [Compound 356, ((S)-5-(3,5-difluorophenyl)-4,5-dihydro-1H-pyrazol-1-yl)((R)-3-((6-methoxypyridin-2-yl)oxy)pyrrolidin-1-yl)methanone] | 0.001 to 1
28 | O=C(N1CC[C@@H](Oc2cccc(NCCN3CCOCC3)n2)C1)N1N=CC[C@H]1c1cc(F)cc(F)c1 [Compound 358] | 0.001 to 1
29 | N#Cc1ccnc(O[C@@H]2CCN(C(=O)N3N=CC[C@H]3c3cc(F)cc(F)c3)C2)n1 [Compound 359, 2-(((R)-1-((S)-5-(3,5-difluorophenyl)-4,5-dihydro-1H-pyrazole-1-carbonyl)pyrrolidin-3-yl)oxy)pyrimidine-4-carbonitrile] | 0.001 to 1
30 | N#Cc1cc(O[C@@H]2CCN(C(=O)N3N=CC[C@H]3c3cc(F)cc(F)c3)C2)ncn1 [Compound 360, 6-(((R)-1-((S)-5-(3,5-difluorophenyl)-4,5-dihydro-1H-pyrazole-1-carbonyl)pyrrolidin-3-yl)oxy)pyrimidine-4-carbonitrile] | 0.001 to 1
31 | NC(=O)c1cc(O[C@@H]2CCN(C(=O)N3N=CC[C@H]3c3cc(F)cc(F)c3)C2)ncn1 [Compound 361] | 0.001 to 1
32 | N#Cc1nccc(O[C@@H]2CCN(C(=O)N3N=CC[C@H]3c3cc(F)cc(F)c3)C2)n1 [Compound 362, 4-(((R)-1-((S)-5-(3,5-difluorophenyl)-4,5-dihydro-1H-pyrazole-1-carbonyl)pyrrolidin-3-yl)oxy)pyrimidine-2-carbonitrile] | 0.001 to 1
33 | COc1nc(O[C@@H]2CCN(C(=O)N3N=CC[C@H]3c3cc(F)cc(F)c3)C2)ncc1F [Compound 363, ((S)-5-(3,5-difluorophenyl)-4,5-dihydro-1H-pyrazol-1-yl)((R)-3-((5-fluoro-4-methoxypyrimidin-2-yl)oxy)pyrrolidin-1-yl)methanone] | 0.001 to 1
34 | NC(=O)c1nccc(O[C@@H]2CCN(C(=O)N3N=CC[C@H]3c3cc(F)cc(F)c3)C2)n1 [Compound 364, 4-(((R)-1-((S)-5-(3,5-difluorophenyl)-4,5-dihydro-1H-pyrazole-1-carbonyl)pyrrolidin-3-yl)oxy)pyrimidine-2-carboxamide] | 0.001 to 1
